From patent US20260297081A1, “COMPOUNDS AND METHODS OF TREATING CANCERS” (Cullgen Inc., priority 2023, published 2026) come the findings set out here.

Bounds are passed on as bounds.

In general, IC50 refers to the midpoint of a concentration-inhibition curve.

Test [1] relates to MCF7 cells. The experiment in a line: Anti-proliferation (viability) of MCF7 cells (Table 7, FIG. 2B). It is filed as cell-based. The note with it: Homo sapiens, MCF7, MCF7 cells, 3-6 days, 10-point serial dilution; read-out: GI IC50 in MCF-7.
For test [2], the target named is CDK4 (Homo sapiens, UniProt P11802+Q16531). The experiment in a line: HiBiT detection of HiBiT-tagged CDK4 protein level in MCF7 cells, 16 hours (Table 8). It counts as cell-based. Details: expressed in transfected cells; host or cells: MCF7. The settings on record: MCF7 cells stably expressing HiBiT tagged target proteins; for activity at 0.01 µM: 10 nM, read-out: % CDK4 Relative Level (10 nM); for activity at 0.1 µM: 100 nM, read-out: % CDK4 Relative Level (100 nM). The protocol: HiBiT detection system quantitatively measures total amounts of HiBiT-tagged proteins using a luminescent based method. MCF7 cells stably expressing HiBiT tagged target proteins were treated with heterobifunctional compounds at indicated concentrations for 16 hours, then lysed with Nano-Glo HiBiT Lytic detection reagents.
Chain of CDK4 (P11802 whole entry): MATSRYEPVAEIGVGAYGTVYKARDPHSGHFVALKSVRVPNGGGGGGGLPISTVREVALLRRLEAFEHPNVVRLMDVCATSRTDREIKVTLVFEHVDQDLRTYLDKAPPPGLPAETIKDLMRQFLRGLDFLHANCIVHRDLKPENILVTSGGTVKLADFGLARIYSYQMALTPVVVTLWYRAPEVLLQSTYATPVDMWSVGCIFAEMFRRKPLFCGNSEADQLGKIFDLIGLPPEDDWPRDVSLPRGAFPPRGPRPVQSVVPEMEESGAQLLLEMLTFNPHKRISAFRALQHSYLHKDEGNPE
Chain of CDK4 (P24385 whole entry partner): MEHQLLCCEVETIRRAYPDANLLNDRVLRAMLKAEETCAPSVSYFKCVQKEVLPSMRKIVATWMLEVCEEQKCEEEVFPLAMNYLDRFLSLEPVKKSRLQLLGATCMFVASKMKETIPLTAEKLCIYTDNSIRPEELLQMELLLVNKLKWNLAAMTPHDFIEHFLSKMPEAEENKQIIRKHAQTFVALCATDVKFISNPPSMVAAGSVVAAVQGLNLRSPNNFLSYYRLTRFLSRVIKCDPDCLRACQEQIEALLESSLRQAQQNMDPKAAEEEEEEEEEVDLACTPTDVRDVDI
Chain of CDK4 (Q16531 2-1140 limits assumed): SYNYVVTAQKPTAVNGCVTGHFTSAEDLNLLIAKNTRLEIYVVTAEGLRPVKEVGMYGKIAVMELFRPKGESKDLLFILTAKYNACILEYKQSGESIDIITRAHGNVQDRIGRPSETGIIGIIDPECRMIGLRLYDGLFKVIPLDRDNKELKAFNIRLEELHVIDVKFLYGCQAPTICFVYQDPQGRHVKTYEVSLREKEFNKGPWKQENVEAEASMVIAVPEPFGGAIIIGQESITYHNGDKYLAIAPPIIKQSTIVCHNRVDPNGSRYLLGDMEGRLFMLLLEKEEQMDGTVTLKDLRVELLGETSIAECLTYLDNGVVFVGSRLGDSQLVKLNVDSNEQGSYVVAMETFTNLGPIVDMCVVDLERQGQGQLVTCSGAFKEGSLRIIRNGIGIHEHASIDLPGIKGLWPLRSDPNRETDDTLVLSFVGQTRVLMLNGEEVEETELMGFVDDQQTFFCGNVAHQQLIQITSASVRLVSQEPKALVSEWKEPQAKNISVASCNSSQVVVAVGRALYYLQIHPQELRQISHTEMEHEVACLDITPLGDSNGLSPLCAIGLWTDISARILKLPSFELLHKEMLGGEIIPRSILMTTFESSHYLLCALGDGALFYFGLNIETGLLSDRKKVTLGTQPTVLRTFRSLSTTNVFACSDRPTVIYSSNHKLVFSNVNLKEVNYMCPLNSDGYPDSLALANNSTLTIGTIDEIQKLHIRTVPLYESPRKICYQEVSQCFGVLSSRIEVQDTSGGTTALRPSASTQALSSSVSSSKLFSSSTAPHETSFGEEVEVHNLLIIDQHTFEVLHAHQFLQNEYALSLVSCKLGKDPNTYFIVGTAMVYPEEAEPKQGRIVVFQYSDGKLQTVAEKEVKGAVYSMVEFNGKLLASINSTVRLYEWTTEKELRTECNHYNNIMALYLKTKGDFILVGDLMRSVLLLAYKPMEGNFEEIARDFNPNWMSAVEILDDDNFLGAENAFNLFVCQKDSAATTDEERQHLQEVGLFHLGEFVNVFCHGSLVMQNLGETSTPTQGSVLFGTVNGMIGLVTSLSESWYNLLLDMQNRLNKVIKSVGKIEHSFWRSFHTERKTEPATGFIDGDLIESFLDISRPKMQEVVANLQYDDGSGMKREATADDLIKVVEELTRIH

Regarding `CCc1ccc(C(=O)Nc2ccc(N(C)C)nn2)c(NC2CC3(CC(NC(=O)CN4CCN(Cc5ccc(Nc6ncc7c(C)c(C(C)=O)c(=O)n(C8CCCC8)c7n6)nc5)CC4)C3)C2)n1` (stereo not drawn) [CPD-578, 2-((6-(2-(4-((6-((6-acetyl-8-cyclopentyl-5-methyl-7-oxo-7,8-dihydropyrido[2,3-d]pyrimidin-2-yl)amino)pyridin-3-yl)methyl)piperazin-1-yl)acetamido)spiro[3.3]heptan-2-yl)amino)-N-(6-(dimethylamino)pyridazin-3-yl)-6-ethylnicotinamide], in test [1], the IC50 was under 50 nM. For the same compound, in test [2], the activity at 0.01 µM was in the range of 55 to 85% and the activity at 0.1 µM is 55 to 85%.

With `CNc1ccc(C(=O)Nc2ccc(N(C)C)nn2)c(NCCCCCCC(=O)N2CCN(c3ccc(Nc4ncc5cc6n(c5n4)C4(CCCCC4)CNC6=O)nc3)CC2)n1` [CPD-636, N-(6-(dimethylamino)pyridazin-3-yl)-6-(methylamino)-2-((7-oxo-7-(4-(6-((6′-oxo-7′,8′-dihydro-6′H-spiro[cyclohexane-1,9′-pyrazino[1′,2′:1,5]pyrrolo[2,3-d]pyrimidin]-2′-yl)amino)pyridin-3-yl)piperazin-1-yl)heptyl)amino)nicotinamide], the IC50 in test [1] was over 100 nM. Moreover, in test [2], the activity at 0.01 µM is 55 to 85% and the activity at 0.1 µM lay within 55 to 85%.

`CCc1ccc(C(=O)Nc2ccc(N(C)C)nn2)c(N[C@H]2CC[C@H](C(=O)N3CCC(N4CCN(C5CCC(Nc6ncc7c(C)c(C(C)=O)c(=O)n(C8CCCC8)c7n6)CC5)CC4)C3)CC2)n1` (stereo partly drawn) [CPD-597, 2-((trans-4-(3-(4-(4-((6-acetyl-8-cyclopentyl-5-methyl-7-oxo-7,8-dihydropyrido[2,3-d]pyrimidin-2-yl)amino)cyclohexyl)piperazin-1-yl)pyrrolidine-1-carbonyl)cyclohexyl)amino)-N-(6-(dimethylamino)pyridazin-3-yl)-6-ethylnicotinamide]: the half-inhibitory concentration (IC50) in test [1] is under 50 nM. In test [2], the activity at 0.01 µM is over 85% and the activity at 0.1 µM was 55 to 85%.

Regarding `CC(=O)c1c(C)c2cnc(Nc3ccc(N4CCN(C5CCN(C(=O)C67CC(Nc8nc(C(C)C)ccc8C(=O)Nc8ccc(N(C)C)nn8)(C6)C7)C5)CC4)cn3)nc2n(C2CCCC2)c1=O` (stereo not drawn) [CPD-580, 2-((3-(3-(4-(6-((6-acetyl-8-cyclopentyl-5-methyl-7-oxo-7,8-dihydropyrido[2,3-d]pyrimidin-2-yl)amino)pyridin-3-yl)piperazin-1-yl)pyrrolidine-1-carbonyl)bicyclo[1.1.1]pentan-1-yl)amino)-N-(6-(dimethylamino)pyridazin-3-yl)-6-isopropylnicotinamide], in test [1], the IC50 was under 50 nM. Further, in test [2], the activity at 0.01 µM was in the range of 55 to 85% and the activity at 0.1 µM was in the range of 55 to 85%.

As for `CNc1ccc(C(=O)Nc2ccc(N(C)C)nn2)c(NCCCC(=O)N2CCN(c3ccc(Nc4ncc5cc6n(c5n4)C4(CCCCC4)CNC6=O)nc3)CC2)n1` [CPD-633, N-(6-(dimethylamino)pyridazin-3-yl)-6-(methylamino)-2-((4-oxo-4-(4-(6-((6′-oxo-7′,8′-dihydro-6′H-spiro[cyclohexane-1,9′-pyrazino[1′,2′:1,5]pyrrolo[2,3-d]pyrimidin]-2′-yl)amnion)pyridin-3-yl)piperazin-1-yl)butyl)amino)nicotinamide], in test [1], the IC50 was over 100 nM. Also, in test [2], the activity at 0.01 µM was in the range of 55 to 85% and the activity at 0.1 µM was over 85%.

Consider `CNc1ccc(C(=O)Nc2ccc(N(C)C)nn2)c(NCCCCCNC(=O)CN2CCN(c3ccc(Nc4ncc5cc(C(=O)N(C)C)n(C6CCCC6)c5n4)nc3)CC2)n1` [CPD-627, 7-cyclopentyl-2-((5-(4-(2-((5-((3-((6-(dimethylamino)pyridazin-3-yl)carbamoyl)-6-(methylamino)pyridin-2-yl)amino)pentyl)amino)-2-oxoethyl)piperazin-1-yl)pyridin-2-yl)amino)-N,N-dimethyl-7H-pyrrolo[2,3-d]pyrimidine-6-carboxamide], for which the half-inhibitory concentration (IC50) in test [1] is over 100 nM. In test [2], the activity at 0.01 µM was in the range of 55 to 85% and the activity at 0.1 µM lay in the range of 55 to 85%.

On to `CNc1ccc(C(=O)Nc2ccc(N(C)C)nn2)c(NCCCCC(=O)N2CCN(c3ccc(Nc4ncc5cc6n(c5n4)C4(CCCCC4)CNC6=O)nc3)CC2)n1` [CPD-634, N-(6-(dimethylamino)pyridazin-3-yl)-6-(methylamino)-2-((5-oxo-5-(4-(6-((6′-oxo-7′,8′-dihydro-6′H-spiro[cyclohexane-1,9′-pyrazino[1′,2′:1,5]pyrrolo[2,3-d]pyrimidin]-2′-yl)amino)pyridin-3-yl)piperazin-1-yl)pentyl)amino)nicotinamide], for which, in test [1], the IC50 is over 100 nM. Also, in test [2], the activity at 0.01 µM was in the range of 55 to 85% and the activity at 0.1 µM fell in the range of 55 to 85%.

Regarding `CC(=O)c1c(C)c2cnc(Nc3ccc(C(C)N4CCN(CC(=O)NC5CC6(C5)CC(Nc5nc(NC(C)C)ccc5C(=O)Nc5ccc(N(C)C)nn5)C6)CC4)cn3)nc2n(C2CCCC2)c1=O` (stereo not drawn) [CPD-586, 2-((6-(2-(4-(1-(6-((6-acetyl-8-cyclopentyl-5-methyl-7-oxo-7,8-dihydropyrido[2,3-d]pyrimidin-2-yl)amino)pyridin-3-yl)ethyl)piperazin-1-yl)acetamido)spiro[3.3]heptan-2-yl)amino)-N-(6-(dimethylamino)pyridazin-3-yl)-6-(isopropylamino)nicotinamide], the IC50 in test [1] was under 50 nM. Further, in test [2], the activity at 0.01 µM is 55 to 85% and the activity at 0.1 µM was 55 to 85%.

For the compound `CC(=O)c1c(C)c2cnc(Nc3ccc(CN4CCN(CC(=O)NC5CC6(C5)CC(Nc5nc(NC(C)C)ccc5C(=O)Nc5cc7n(n5)CCC7)C6)CC4)cn3)nc2n(C2CCCC2)c1=O` (stereo not drawn) [CPD-584, 2-((6-(2-(4-((6-((6-acetyl-8-cyclopentyl-5-methyl-7-oxo-7,8-dihydropyrido[2,3-d]pyrimidin-2-yl)amino)pyridin-3-yl)methyl)piperazin-1-yl)acetamido)spiro[3.3]heptan-2-yl)amino)-N-(5,6-dihydro-4H-pyrrolo[1,2-b]pyrazol-2-yl)-6-(isopropylamino) nicotinamide], the IC50 in test [1] was under 50 nM. Besides, in test [2], the activity at 0.01 µM is 55 to 85% and the activity at 0.1 µM was in the range of 55 to 85%.

As to `CNc1ccc(C(=O)Nc2ccc(N(C)C)nn2)c(NCCCCCCNC(=O)CN2CCN(c3ccc(Nc4ncc5cc(C(=O)N(C)C)n(C6CCCC6)c5n4)nc3)CC2)n1` [CPD-628, 7-cyclopentyl-2-((5-(4-(2-((6-((3-((6-(dimethylamino)pyridazin-3-yl)carbamoyl)-6-(methylamino)pyridin-2-yl)amino)hexyl)amino)-2-oxoethyl)piperazin-1-yl)pyridin-2-yl)amino)-N,N-dimethyl-7H-pyrrolo[2,3-d]pyrimidine-6-carboxamide], the IC50 in test [1] was over 100 nM. For the same compound, in test [2], the activity at 0.01 µM lay in the range of 55 to 85% and the activity at 0.1 µM was 55 to 85%.

For the compound `CNc1ccc(C(=O)Nc2ccc(N(C)C)nn2)c(NCCCCCNC(=O)CN2CCN(c3ccc(Nc4ncc5cc6n(c5n4)C4(CCCCC4)CNC6=O)nc3)CC2)n1` [CPD-643], the IC50 in test [1] was over 100 nM. Moreover, in test [2], the activity at 0.01 µM was over 85% and the activity at 0.1 µM lay in the range of 55 to 85%.

On to `CCc1ccc(C(=O)Nc2ccc(N(C)C)nn2)c(NC23CC(C(=O)N4CCC(N5CCN(c6ccc(Nc7ncc8c(C)c(C(C)=O)c(=O)n(C9CCCC9)c8n7)nc6)CC5)C4)(C2)C3)n1` (stereo not drawn) [CPD-577, 2-((3-(3-(4-(6-((6-acetyl-8-cyclopentyl-5-methyl-7-oxo-7,8-dihydropyrido[2,3-d]pyrimidin-2-yl)amino)pyridin-3-yl)piperazin-1-yl)pyrrolidine-1-carbonyl)bicyclo[1.1.1]pentan-1-yl)amino)-N-(6-(dimethylamino)pyridazin-3-yl)-6-ethylnicotinamide], for which the IC50 in test [1] is under 50 nM. Besides, in test [2], the activity at 0.01 µM is over 85% and the activity at 0.1 µM is 55 to 85%.

With `CNc1ccc(C(=O)Nc2ccc(N(C)C)nn2)c(NCCCCCC(=O)N2CCN(Cc3ccc(Nc4ncc(F)c(-c5cc(F)c6nc(C)n(C(C)C)c6c5)n4)nc3)CC2)n1` [CPD-603, N-(6-(dimethylamino)pyridazin-3-yl)-2-((6-(4-((6-((5-fluoro-4-(4-fluoro-1-isopropyl-2-methyl-1H-benzo[d]imidazol-6-yl)pyrimidin-2-yl)amino)pyridin-3-yl)methyl)piperazin-1-yl)-6-oxohexyl)amino)-6-(methylamino)nicotinamide], the IC50 in test [1] was over 100 nM. For the same compound, in test [2], the activity at 0.01 µM was 55 to 85% and the activity at 0.1 µM was in the range of 55 to 85%.

In the case of `CC(=O)c1c(C)c2cnc(Nc3ccc(N4CCN(C5CCN(C(=O)C67CC(Nc8nc(NC(C)C)ccc8C(=O)Nc8cc(C)on8)(C6)C7)C5)CC4)cn3)nc2n(C2CCCC2)c1=O` (stereo not drawn) [CPD-591, 2-((3-(3-(4-(6-((6-acetyl-8-cyclopentyl-5-methyl-7-oxo-7,8-dihydropyrido[2,3-d]pyrimidin-2-yl)amino)pyridin-3-yl)piperazin-1-yl)pyrrolidine-1-carbonyl)bicyclo[1.1.1]pentan-1-yl)amino)-6-(isopropylamino)-N-(5-methylisoxazol-3-yl)nicotinamide], the IC50 in test [1] is under 50 nM. For the same compound, in test [2], the activity at 0.01 µM lay within 55 to 85% and the activity at 0.1 µM was 55 to 85%.

On to `CC(=O)c1c(C)c2cnc(Nc3ccc(N4CCN(C5CCN(C(=O)[C@H]6CC[C@H](Nc7nc(C)ccc7C(=O)Nc7ccc(N(C)C)nn7)CC6)C5)CC4)cn3)nc2n(C2CCCC2)c1=O` (stereo partly drawn) [CPD-576, 2-((trans-4-(3-(4-(6-((6-acetyl-8-cyclopentyl-5-methyl-7-oxo-7,8-dihydropyrido[2,3-d]pyrimidin-2-yl)amino)pyridin-3-yl)piperazin-1-yl)pyrrolidine-1-carbonyl)cyclohexyl)amino)-N-(6-(dimethylamino)pyridazin-3-yl)-6-methylnicotinamide], for which the IC50 in test [1] is over 100 nM. In addition, in test [2], the activity at 0.01 µM lay in the range of 55 to 85% and the activity at 0.1 µM is 55 to 85%.
